Earlier results as cited in patent US9151747B1, “Sucralose antibody and immunoassay” (Mercyhurst University, priority 2013, dated 2015).

Key:
[1] = background statement
[2] = background statement; remark: listed apart in the source

OC[C@H]1O[C@H](O[C@]2(CCl)O[C@H](CCl)[C@@H](O)[C@@H]2O)[C@H](O)[C@@H](O)[C@H]1Cl [Sucralose, sucralose]
sweetness relative to table sugar [1]: 600 times | breakdown by the human body [2]: minimal breakdown
